# Paper PMC5224920, “Assessing the mechanism and therapeutic potential of modulators of the human Mediator complex-associated protein kinases” (eLife, 2016)
# Test system: 12 single or co-culture in vitro tissue models of primary cells
# Assay: Culture/co-culture cell model panel, extracellular biomarkers (DiscoveRx); for CCL2/MCP-1: reference of the scale not given here; for CXCL8/IL-8: reference of the scale not given here; for CXCL9/MIG: reference of the scale not given here; for IL-1alpha: reference of the scale not given here; for PBMC Cytotoxicity: reference of the scale not given here; for SRB: reference of the scale not given here
# Format: cell-based, human
structure (smiles),measurement,setting,value
Cc1n[nH]c2ncc(C(=O)N3CCC[C@H]3c3ccc(Cl)cc3)cc12 [CMPD4],tPA,"BENo, 3.70E2 nM",-0.062
same,uPA,"BENo, 3.70E2 nM",-0.019
same,CCL26/Eotaxin-3,"BENo, 4.12E1 nM",0.012
same,CD54/ICAM-1,"BENo, 4.12E1 nM",-0.077
same,CD87/uPAR,"BENo, 4.12E1 nM",-0.027
same,CXCL8/IL-8,"BENo, 4.12E1 nM",0.020
same,CXCL9/MIG,"BENo, 4.12E1 nM",-0.004
same,CXCL10/IP-10,"BENo, 4.12E1 nM",-0.033
same,CXCL11/I-TAC,"BENo, 4.12E1 nM",-0.036
same,EGFR,"BENo, 4.12E1 nM",0.00426
same,HLA-DR,"BENo, 4.12E1 nM",-0.016
same,IL-1alpha,"BENo, 4.12E1 nM",0.010
same,Keratin 8/18,"BENo, 4.12E1 nM",-0.010
same,MMP-1,"BENo, 4.12E1 nM",-0.031
same,MMP-9,"BENo, 4.12E1 nM",-0.003
same,PAI-I,"BENo, 4.12E1 nM",-0.067
same,SRB,"BENo, 4.12E1 nM",0.00253
same,tPA,"BENo, 4.12E1 nM",-0.061
same,uPA,"BENo, 4.12E1 nM",-0.015
same,CCL26/Eotaxin-3,"BENo, 4.57E0 nM",0.029
same,CD54/ICAM-1,"BENo, 4.57E0 nM",-0.040
same,CD87/uPAR,"BENo, 4.57E0 nM",0.028
same,CXCL8/IL-8,"BENo, 4.57E0 nM",0.039
same,CXCL9/MIG,"BENo, 4.57E0 nM",0.050
same,CXCL10/IP-10,"BENo, 4.57E0 nM",0.057
same,CXCL11/I-TAC,"BENo, 4.57E0 nM",-0.035
same,EGFR,"BENo, 4.57E0 nM",0.015
same,HLA-DR,"BENo, 4.57E0 nM",0.068
same,IL-1alpha,"BENo, 4.57E0 nM",-0.00546
same,Keratin 8/18,"BENo, 4.57E0 nM",-0.020
same,MMP-1,"BENo, 4.57E0 nM",-0.009
same,MMP-9,"BENo, 4.57E0 nM",-0.020
same,PAI-I,"BENo, 4.57E0 nM",-0.00037
same,SRB,"BENo, 4.57E0 nM",0.018
same,tPA,"BENo, 4.57E0 nM",0.003
same,uPA,"BENo, 4.57E0 nM",-0.020
same,CCL2/MCP-1,"BF4T, 1.00E4 nM",-0.010
same,CCL26/Eotaxin-3,"BF4T, 1.00E4 nM",-0.144
same,CD54/ICAM-1,"BF4T, 1.00E4 nM",-0.092
same,CD90,"BF4T, 1.00E4 nM",-0.00366
same,CD106/VCAM-1,"BF4T, 1.00E4 nM",-0.026
same,CXCL8/IL-8,"BF4T, 1.00E4 nM",0.017
same,IL-1alpha,"BF4T, 1.00E4 nM",-0.039
same,Keratin 8/18,"BF4T, 1.00E4 nM",-0.020
same,MMP-1,"BF4T, 1.00E4 nM",-0.016
same,MMP-3,"BF4T, 1.00E4 nM",0.014
same,MMP-9,"BF4T, 1.00E4 nM",-0.031
same,PAI-I,"BF4T, 1.00E4 nM",-0.059
same,SRB,"BF4T, 1.00E4 nM",0.004
same,tPA,"BF4T, 1.00E4 nM",-0.022
same,uPA,"BF4T, 1.00E4 nM",-0.009
same,CCL2/MCP-1,"BF4T, 1.11E3 nM",-0.045
same,CCL26/Eotaxin-3,"BF4T, 1.11E3 nM",-0.209
same,CD54/ICAM-1,"BF4T, 1.11E3 nM",-0.086
same,CD90,"BF4T, 1.11E3 nM",-0.00131
same,CD106/VCAM-1,"BF4T, 1.11E3 nM",-0.021
same,CXCL8/IL-8,"BF4T, 1.11E3 nM",-0.056
same,IL-1alpha,"BF4T, 1.11E3 nM",-0.038
same,Keratin 8/18,"BF4T, 1.11E3 nM",0.020
same,MMP-1,"BF4T, 1.11E3 nM",-0.016
same,MMP-3,"BF4T, 1.11E3 nM",-0.0065
same,MMP-9,"BF4T, 1.11E3 nM",-0.011
same,PAI-I,"BF4T, 1.11E3 nM",-0.00269
same,SRB,"BF4T, 1.11E3 nM",0.011
same,tPA,"BF4T, 1.11E3 nM",0.007
same,uPA,"BF4T, 1.11E3 nM",-0.016
same,CCL2/MCP-1,"BF4T, 1.23E2 nM",-0.067
same,CCL26/Eotaxin-3,"BF4T, 1.23E2 nM",-0.191
same,CD54/ICAM-1,"BF4T, 1.23E2 nM",-0.058
same,CD90,"BF4T, 1.23E2 nM",-0.00126
same,CD106/VCAM-1,"BF4T, 1.23E2 nM",-0.012
same,CXCL8/IL-8,"BF4T, 1.23E2 nM",-0.021
same,IL-1alpha,"BF4T, 1.23E2 nM",-0.020
same,Keratin 8/18,"BF4T, 1.23E2 nM",-0.022
same,MMP-1,"BF4T, 1.23E2 nM",0.00135
same,MMP-3,"BF4T, 1.23E2 nM",-0.007
same,MMP-9,"BF4T, 1.23E2 nM",-0.047
same,PAI-I,"BF4T, 1.23E2 nM",-0.013
same,SRB,"BF4T, 1.23E2 nM",0.00469
same,tPA,"BF4T, 1.23E2 nM",0.032
same,uPA,"BF4T, 1.23E2 nM",0.00319
same,CCL2/MCP-1,"BF4T, 1.37E1 nM",0.00746
same,CCL26/Eotaxin-3,"BF4T, 1.37E1 nM",-0.134
same,CD54/ICAM-1,"BF4T, 1.37E1 nM",-0.057
same,CD90,"BF4T, 1.37E1 nM",-0.011
same,CD106/VCAM-1,"BF4T, 1.37E1 nM",-0.028
same,CXCL8/IL-8,"BF4T, 1.37E1 nM",-0.024
same,IL-1alpha,"BF4T, 1.37E1 nM",-0.024
same,Keratin 8/18,"BF4T, 1.37E1 nM",-0.00271
same,MMP-1,"BF4T, 1.37E1 nM",-0.015
same,MMP-3,"BF4T, 1.37E1 nM",0.049
same,MMP-9,"BF4T, 1.37E1 nM",-0.026
same,PAI-I,"BF4T, 1.37E1 nM",-0.020
same,SRB,"BF4T, 1.37E1 nM",0.005
same,tPA,"BF4T, 1.37E1 nM",0.049
same,uPA,"BF4T, 1.37E1 nM",0.009
same,CCL2/MCP-1,"BF4T, 3.33E3 nM",-0.061
same,CCL26/Eotaxin-3,"BF4T, 3.33E3 nM",-0.184
same,CD54/ICAM-1,"BF4T, 3.33E3 nM",-0.074
same,CD90,"BF4T, 3.33E3 nM",0.011
same,CD106/VCAM-1,"BF4T, 3.33E3 nM",0.002
same,CXCL8/IL-8,"BF4T, 3.33E3 nM",-0.042
same,IL-1alpha,"BF4T, 3.33E3 nM",-0.055
same,Keratin 8/18,"BF4T, 3.33E3 nM",-0.022
same,MMP-1,"BF4T, 3.33E3 nM",-0.012
same,MMP-3,"BF4T, 3.33E3 nM",-0.048
same,MMP-9,"BF4T, 3.33E3 nM",-0.00425
same,PAI-I,"BF4T, 3.33E3 nM",-0.026
same,SRB,"BF4T, 3.33E3 nM",0.006
same,tPA,"BF4T, 3.33E3 nM",0.015
same,uPA,"BF4T, 3.33E3 nM",-0.019
same,CCL2/MCP-1,"BF4T, 3.70E2 nM",-0.039
same,CCL26/Eotaxin-3,"BF4T, 3.70E2 nM",-0.177
same,CD54/ICAM-1,"BF4T, 3.70E2 nM",-0.076
same,CD90,"BF4T, 3.70E2 nM",-0.00567
same,CD106/VCAM-1,"BF4T, 3.70E2 nM",-0.004
same,CXCL8/IL-8,"BF4T, 3.70E2 nM",-0.042
same,IL-1alpha,"BF4T, 3.70E2 nM",-0.090
same,Keratin 8/18,"BF4T, 3.70E2 nM",-0.012
same,MMP-1,"BF4T, 3.70E2 nM",-0.008
same,MMP-3,"BF4T, 3.70E2 nM",0.015
same,MMP-9,"BF4T, 3.70E2 nM",-0.018
same,PAI-I,"BF4T, 3.70E2 nM",0.003
same,SRB,"BF4T, 3.70E2 nM",3.34e-5
same,tPA,"BF4T, 3.70E2 nM",0.027
same,uPA,"BF4T, 3.70E2 nM",-0.022
same,CCL2/MCP-1,"BF4T, 4.12E1 nM",-0.019
same,CCL26/Eotaxin-3,"BF4T, 4.12E1 nM",-0.203
same,CD54/ICAM-1,"BF4T, 4.12E1 nM",-0.044
same,CD90,"BF4T, 4.12E1 nM",0.0044
same,CD106/VCAM-1,"BF4T, 4.12E1 nM",-0.036
same,CXCL8/IL-8,"BF4T, 4.12E1 nM",-0.031
same,IL-1alpha,"BF4T, 4.12E1 nM",-0.038
same,Keratin 8/18,"BF4T, 4.12E1 nM",0.00849
same,MMP-1,"BF4T, 4.12E1 nM",-0.002
same,MMP-3,"BF4T, 4.12E1 nM",0.027
same,MMP-9,"BF4T, 4.12E1 nM",-0.011
same,PAI-I,"BF4T, 4.12E1 nM",-0.009
same,SRB,"BF4T, 4.12E1 nM",0.000731
same,tPA,"BF4T, 4.12E1 nM",0.025
same,uPA,"BF4T, 4.12E1 nM",-0.00027
same,CCL2/MCP-1,"BF4T, 4.57E0 nM",0.041
same,CCL26/Eotaxin-3,"BF4T, 4.57E0 nM",-0.086
same,CD54/ICAM-1,"BF4T, 4.57E0 nM",-0.034
same,CD90,"BF4T, 4.57E0 nM",-0.000153
same,CD106/VCAM-1,"BF4T, 4.57E0 nM",-0.018
same,CXCL8/IL-8,"BF4T, 4.57E0 nM",0.024
same,IL-1alpha,"BF4T, 4.57E0 nM",-0.020
same,Keratin 8/18,"BF4T, 4.57E0 nM",-0.00266
same,MMP-1,"BF4T, 4.57E0 nM",0.000794
same,MMP-3,"BF4T, 4.57E0 nM",0.054
same,MMP-9,"BF4T, 4.57E0 nM",-0.023
same,PAI-I,"BF4T, 4.57E0 nM",0.019
same,SRB,"BF4T, 4.57E0 nM",-0.008
same,tPA,"BF4T, 4.57E0 nM",0.057
same,uPA,"BF4T, 4.57E0 nM",-0.00538
same,B cell Proliferation,"BT, 1.00E4 nM",-0.013
same,PBMC Cytotoxicity,"BT, 1.00E4 nM",-0.020
same,Secreted IgG,"BT, 1.00E4 nM",-0.332
same,sIL-2,"BT, 1.00E4 nM",0.00561
same,sIL-6,"BT, 1.00E4 nM",-0.027
same,sIL-17A,"BT, 1.00E4 nM",0.321
same,sIL-17F,"BT, 1.00E4 nM",-0.397
